Legend:
[1] = target: H1047R PIK3CA enzyme (Homo sapiens, UniProt P42336, H1047R); assay: ADP-Glo Biochemical PIK3CA Kinase Assay
[2] = cells; conditions: Homo sapiens, MCF-10A, read-out: MCF10A IC50

Chain of H1047R PIK3CA enzyme (P42336 whole entry H1047R): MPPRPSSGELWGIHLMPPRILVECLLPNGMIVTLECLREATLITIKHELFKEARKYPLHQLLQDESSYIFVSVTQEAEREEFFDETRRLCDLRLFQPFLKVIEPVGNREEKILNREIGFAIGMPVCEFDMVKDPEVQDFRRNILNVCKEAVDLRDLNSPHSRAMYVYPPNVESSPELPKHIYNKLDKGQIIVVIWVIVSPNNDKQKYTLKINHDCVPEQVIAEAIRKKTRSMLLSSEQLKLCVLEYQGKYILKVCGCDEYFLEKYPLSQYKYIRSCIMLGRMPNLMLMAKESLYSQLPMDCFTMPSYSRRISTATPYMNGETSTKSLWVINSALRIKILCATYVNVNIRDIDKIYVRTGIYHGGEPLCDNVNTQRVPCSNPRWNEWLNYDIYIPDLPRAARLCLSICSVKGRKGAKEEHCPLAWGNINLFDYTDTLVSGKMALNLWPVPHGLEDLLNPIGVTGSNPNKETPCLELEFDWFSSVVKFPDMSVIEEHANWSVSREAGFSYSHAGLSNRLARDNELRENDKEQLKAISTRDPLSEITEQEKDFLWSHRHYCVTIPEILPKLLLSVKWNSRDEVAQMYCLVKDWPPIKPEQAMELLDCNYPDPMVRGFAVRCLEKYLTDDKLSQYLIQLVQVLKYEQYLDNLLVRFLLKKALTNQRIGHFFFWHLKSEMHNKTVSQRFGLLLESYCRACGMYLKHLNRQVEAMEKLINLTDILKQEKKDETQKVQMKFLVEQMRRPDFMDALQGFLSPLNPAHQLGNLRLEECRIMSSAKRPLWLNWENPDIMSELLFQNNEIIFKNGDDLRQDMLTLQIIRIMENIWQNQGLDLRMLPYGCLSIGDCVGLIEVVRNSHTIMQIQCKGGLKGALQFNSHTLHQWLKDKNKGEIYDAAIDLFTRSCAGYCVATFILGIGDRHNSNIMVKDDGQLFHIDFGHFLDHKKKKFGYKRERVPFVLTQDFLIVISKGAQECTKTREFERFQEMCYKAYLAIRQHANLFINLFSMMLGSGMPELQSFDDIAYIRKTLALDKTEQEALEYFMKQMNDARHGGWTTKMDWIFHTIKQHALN
Chain of H1047R PIK3CA enzyme (P27986 whole entry partner): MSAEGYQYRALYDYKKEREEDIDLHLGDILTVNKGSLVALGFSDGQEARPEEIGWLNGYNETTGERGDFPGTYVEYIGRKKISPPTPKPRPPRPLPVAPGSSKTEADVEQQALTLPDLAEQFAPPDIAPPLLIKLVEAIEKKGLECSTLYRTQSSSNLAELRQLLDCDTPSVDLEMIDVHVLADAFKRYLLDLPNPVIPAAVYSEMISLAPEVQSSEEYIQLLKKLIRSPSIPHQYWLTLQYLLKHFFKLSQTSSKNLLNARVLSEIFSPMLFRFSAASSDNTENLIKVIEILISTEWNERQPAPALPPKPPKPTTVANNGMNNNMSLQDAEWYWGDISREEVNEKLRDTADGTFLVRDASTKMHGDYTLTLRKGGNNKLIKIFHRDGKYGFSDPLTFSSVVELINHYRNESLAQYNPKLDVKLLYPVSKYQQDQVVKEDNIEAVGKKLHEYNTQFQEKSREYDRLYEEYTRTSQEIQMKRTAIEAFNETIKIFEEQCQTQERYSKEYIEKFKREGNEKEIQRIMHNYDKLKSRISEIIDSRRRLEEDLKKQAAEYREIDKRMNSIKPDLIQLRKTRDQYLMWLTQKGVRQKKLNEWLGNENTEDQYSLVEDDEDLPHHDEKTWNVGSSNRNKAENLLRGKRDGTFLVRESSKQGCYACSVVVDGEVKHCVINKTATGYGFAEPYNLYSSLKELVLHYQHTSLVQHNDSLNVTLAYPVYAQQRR

Row | Compound | IC50 [1] [µM] | IC50 [2] [µM]
1 | O=C(Nc1cc(CC2(O)CNC2)cc2c1C(c1cc(F)ccc1Cl)NC2=O)c1cc(F)cc(C(F)(F)F)c1 (centres unmarked) [Compound I-926] | ≤ 0.1 | 10 to 36
2 | CNc1nc2ccc(-c3cc(NC(=O)c4cc(F)cc(C(F)(F)F)c4)c4c(c3)C(=O)NC4c3cc(F)ccc3Cl)cn2n1 (centres unmarked) [Compound I-2125] | ≤ 0.1 | < 1
3 | O=C1N[C@H](c2cc(F)ccc2Cl)c2c(NC(=O)N3C[C@@](O)(C(F)(F)F)c4cc(F)ccc43)cc(N3CCOC3=O)cc21 (single isomer, unassigned) [Compound I-2673] | ≤ 0.1 | < 1
4 | O=C(Nc1cc(Br)cc2c1[C@H](c1cc(F)ccc1Cl)NC2=O)c1cc(F)cc(C(F)(F)F)c1 [Compound I-388] | ≤ 0.1 | < 1
5 | N#CCN1CC(c2cc(NC(=O)c3cc(F)cc(C(F)(F)F)c3)c3c(c2)C(=O)NC3c2cc(F)ccc2Cl)C1 (centres unmarked) [Compound I-1158] | ≤ 0.1 | < 1
6 | O=C1N[C@H](c2cc(F)ccc2C(F)F)c2c(NC(=O)c3nsc4ccccc34)cccc21 [Compound I-167] | ≤ 0.1 | 1 to 5
7 | N#CC1(COc2cc(NC(=O)N3C[C@@H](O)c4cc(F)ccc43)c3c(c2)C(=O)N[C@@H]3c2cc(F)ccc2Cl)CC1 (single isomer, unassigned) [Compound I-2552] | ≤ 0.1 | 1 to 5
8 | CC(C)(CN)n1cc(-c2cc(NC(=O)N3C[C@@](O)(C(F)(F)F)c4cc(F)ccc43)c3c(c2)C(=O)N[C@@H]3c2cc(F)ccc2Cl)cn1 (single isomer, unassigned) [Compound I-2649] | ≤ 0.1 | 1 to 5
9 | O=C1N[C@@H](c2cc(F)ccc2Cl)c2c(NC(=O)N3C[C@@H](O)c4cc(F)c(F)cc43)cccc21 (single isomer, unassigned) [Compound I-2293] | ≤ 0.1 | < 1
10 | N#Cc1cc(NC(=O)N2CC(O)(C(F)(F)F)c3cc(F)ccc32)c2c(c1)C(=O)NC2c1cc(F)ccc1Cl (centres unmarked) [Compound I-2469] | ≤ 0.1 | < 1
11 | COc1ncc(-c2cc(NC(=O)c3cc(F)cc(C(F)(F)F)c3)c3c(c2)C(=O)N[C@H]3c2cc(F)ccc2Cl)cn1 [Compound I-882] | ≤ 0.1 | < 1
12 | Cc1ccccc1C1NC(=O)c2cc(NC3COC3)cc(NC(=O)c3csc4ccccc34)c21 (centres unmarked) [Compound I-51] | ≤ 0.1 | < 1
13 | Cn1nncc1-c1cc(NC(=O)c2cc(F)cc(C(F)(F)F)c2)c2c(c1)C(=O)NC2c1cc(F)ccc1Cl (centres unmarked) [Compound I-1030] | ≤ 0.1 | < 1
14 | CC(C)(O)c1ncc(-c2cc(NC(=O)c3cc(F)cc(C(F)(F)F)c3)c3c(c2)C(=O)NC3c2cc(F)ccc2Cl)cn1 (centres unmarked) [Compound I-941] | 0.1 to 0.5 | < 1
15 | Cc1ccccc1C1NC(=O)c2cc(N)cc(NC(=O)c3nsc4ccccc34)c21 (centres unmarked) [Compound I-50, N-[6-Amino-3-(2-methylphenyl)-1-oxo-2,3-dihydro-1H-isoindol-4-yl]-1,2-benzothiazole-3-carboxamide] | ≤ 0.1 | < 1
16 | O=C1NC(c2cc(F)ccc2Cl)c2c(Nc3nccc4c(C(F)(F)F)cc(F)cc34)cc(Br)cc21 (centres unmarked) [Compound I-978] | ≤ 0.1 | < 1
17 | O=C(Nc1cc(Nc2nnco2)cc2c1C(c1cc(F)ccc1Cl)NC2=O)c1cc(F)cc(C(F)(F)F)c1 (centres unmarked) [Compound I-1099] | ≤ 0.1 | < 1
18 | O=C(Nc1cc(-c2ccc[nH]c2=O)cc2c1C(c1cc(F)ccc1Cl)NC2=O)c1cc(F)cc(C(F)(F)F)c1 (centres unmarked) [Compound I-916] | ≤ 0.1 | < 1
19 | Nc1cnc(-c2cc(NC(=O)c3cc(F)cc(C(F)(F)F)c3)c3c(c2)C(=O)NC3c2cc(F)ccc2Cl)cn1 (centres unmarked) [Compound I-1102] | ≤ 0.1 | < 1
20 | O=C(Nc1cc(Nc2ncco2)cc2c1C(c1cc(F)ccc1Cl)NC2=O)c1cc(F)cc(C(F)(F)F)c1 (centres unmarked) [Compound I-961] | ≤ 0.1 | < 1
21 | O=C(Nc1cc(-c2cnn(C(F)F)c2)cc2c1[C@H](c1cc(F)ccc1Cl)NC2=O)c1cc(F)cc(C(F)(F)F)c1 (single isomer, unassigned) [Compound I-1740] | ≤ 0.1 | < 1
22 | O=C(Nc1cc(-c2cc3cccnc3[nH]2)cc2c1C(c1cc(F)ccc1Cl)NC2=O)c1cc(F)cc(C(F)(F)F)c1 (centres unmarked) [Compound I-972] | ≤ 0.1 | < 1
23 | O=C(Nc1cc(-c2c[nH]nn2)cc2c1C(c1cc(F)ccc1Cl)NC2=O)c1cc(F)cc(C(F)(F)F)c1 (centres unmarked) [Compound I-840] | ≤ 0.1 | < 1
24 | [2H][C@@]1(c2cc(F)ccc2Cl)NC(=O)c2cccc(NC(=O)N3C[C@@](O)(C(F)(F)F)c4cc(F)ccc43)c21 (single isomer, unassigned) [Compound I-2682] | ≤ 0.1 | < 1
25 | CNC(=O)c1cc(NC(=O)c2cc(F)cc(C(F)(F)F)c2)c2c(c1)C(=O)NC2c1cc(F)ccc1Cl (centres unmarked) [Compound I-493] | ≤ 0.1 | < 1
26 | O=C1NC(c2cc(F)ccc2Cl)c2c(Nc3nccc4c(Cl)cc(F)cc34)cc(Br)cc21 (centres unmarked) [Compound I-959] | 0.1 to 0.5 | < 1

Row | Compound | IC50 [1] [µM] | IC50 [2] [µM]
27 | COc1ccc(NC(=O)c2csc3ccccc23)c2c1C(=O)NC2c1ccccc1C (centres unmarked) [Compound I-35] | ≤ 0.1 | 1 to 5
28 | O=C1N[C@@H](c2cc(F)ccc2Cl)c2c(NC(=O)N3C[C@@H](O)c4cc(F)ccc43)cccc21 (single isomer, unassigned) [Compound I-2127] | ≤ 0.1 | < 1
29 | O=C(Nc1cc(Nc2cn[nH]c2)cc2c1C(c1cc(F)ccc1Cl)NC2=O)c1cc(F)cc(C(F)(F)F)c1 (centres unmarked) [Compound I-994] | ≤ 0.1 | < 1
30 | O=C(Nc1cc(-c2ccc3ncnn3c2)cc2c1[C@@H](c1cc(Cl)ccc1Cl)NC2=O)c1cc(F)cc(C(F)(F)F)c1 [Compound I-1054] | ≤ 0.1 | < 1
31 | Nc1cc(NC(=O)c2cc(F)cc(C(F)(F)F)c2)c2c(c1)C(=O)NC2c1cc(F)ccc1Cl (centres unmarked) [Compound I-125] | ≤ 0.1 | < 1
32 | O=C1NC(c2cc(F)ccc2Cl)c2c(NC(=O)N3CC(O)c4cc(F)ccc43)cc(-c3cnn(C(F)F)c3)cc21 (centres unmarked) [Compound I-2299] | ≤ 0.1 | 1 to 5
33 | O=C(Nc1cc(-n2cc(F)cn2)cc2c1C(c1cc(F)ccc1Cl)NC2=O)c1cc(F)cc(C(F)(F)F)c1 (centres unmarked) [Compound I-1146] | ≤ 0.1 | < 1
34 | Cc1ccccc1C1NC(=O)c2cc(CNC(=O)OC(C)(C)C)cc(NC(=O)c3csc4ccccc34)c21 (centres unmarked) [Compound I-87] | ≤ 0.1 | 1 to 5
35 | O=C(Nc1cc(-c2cnn3cccnc23)cc2c1C(c1cc(F)ccc1Cl)NC2=O)c1cc(F)cc(C(F)(F)F)c1 (centres unmarked) [Compound I-1046] | ≤ 0.1 | < 1
36 | N#CCc1cc(NC(=O)c2cc(F)cc(C(F)(F)F)c2)c2c(c1)C(=O)N[C@H]2c1cc(F)ccc1Cl (racemic) [Compound I-1088] | ≤ 0.1 | < 1
37 | Nc1cc(NC(=O)N2C[C@@H](O)c3ccccc32)c2c(c1)C(=O)N[C@H]2c1cc(F)ccc1Cl (single isomer, unassigned) [Compound I-2133] | ≤ 0.1 | < 1
38 | CC(C)(O)c1cc(NC(=O)c2cc(F)cc(C(F)(F)F)c2)c2c(c1)C(=O)N[C@H]2c1cc(F)ccc1C(F)F [Compound I-264] | ≤ 0.1 | 1 to 5
39 | N#CCCc1cc(NC(=O)c2cc(F)cc(C(F)(F)F)c2)c2c(c1)C(=O)N[C@H]2c1cc(F)ccc1Cl (stereo in doubt) [Compound I-2169] | ≤ 0.1 | < 1
40 | O=C(Nc1cc(-c2ccncc2F)cc2c1[C@@H](c1cc(F)ccc1Cl)NC2=O)c1cc(F)cc(C(F)(F)F)c1 (stereo in doubt) [Compound I-986] | ≤ 0.1 | < 1
41 | O=C(Nc1cc(-c2ccc3ncnn3c2)cc2c1[C@@H](c1cc(F)c(F)cc1Cl)NC2=O)c1cc(F)cc(C(F)(F)F)c1 [Compound I-1061] | ≤ 0.1 | < 1
42 | O=C(Nc1cc(-c2cncnc2)cc2c1[C@H](c1cc(F)ccc1Cl)NC2=O)c1cc(F)cc(C(F)(F)F)c1 [Compound I-1095] | ≤ 0.1 | < 1
43 | O=C(Nc1cc(-c2cn3ncnc3cn2)cc2c1C(c1cc(F)ccc1C(F)F)NC2=O)c1cc(F)cc(C(F)(F)F)c1 (centres unmarked) [Compound I-2185] | ≤ 0.1 | < 1
44 | O=C(Nc1cc(-c2n[nH]c3cccnc23)cc2c1C(c1cc(F)ccc1Cl)NC2=O)c1cc(F)cc(C(F)(F)F)c1 (centres unmarked) [Compound I-936] | ≤ 0.1 | < 1
45 | O=C1N[C@@H](c2cc(F)ccc2Cl)c2c(NC(=O)N3C[C@@](O)(C(F)(F)F)c4ccccc43)cccc21 (single isomer, unassigned) [Compound I-2386] | ≤ 0.1 | < 1
46 | Cc1ccccc1[C@@H]1NC(=O)c2cc(N)cc(NC(=O)c3nsc4ccccc34)c21 [Compound I-92] | ≤ 0.1 | < 1
47 | O=C(Nc1cc(-c2cnc3nccn3c2)cc2c1[C@H](c1cc(F)ccc1Cl)NC2=O)c1cc(F)cc(C(F)(F)F)c1 [Compound I-884] | ≤ 0.1 | < 1
48 | Cc1cc(-c2cc(NC(=O)c3cc(F)cc(C(F)(F)F)c3)c3c(c2)C(=O)NC3c2cc(F)ccc2Cl)cc2cnn(C)c12 (centres unmarked) [Compound I-927] | 0.1 to 0.5 | 5 to 10
49 | O=C1N[C@@H](c2cc(F)ccc2Cl)c2c(Nc3nccc4c(C(F)(F)F)cc(F)cc34)cc(Br)cc21 [Compound I-1109] | ≤ 0.1 | < 1
50 | Cc1ccccc1C1NC(=O)c2cc(C(=O)NCC(F)F)cc(NC(=O)c3nsc4ccccc34)c21 (centres unmarked) [Compound I-121] | ≤ 0.1 | < 1
51 | CC(C)(O)Cc1cc(NC(=O)c2cc(F)cc(Cl)c2)c2c(c1)C(=O)N[C@H]2c1cc(F)ccc1Cl [Compound I-1080] | ≤ 0.1 | < 1
52 | N#Cc1ncc(-c2cc(NC(=O)c3cc(F)cc(C(F)(F)F)c3)c3c(c2)C(=O)N[C@@H]3c2cc(F)ccc2Cl)cn1 [Compound I-980] | ≤ 0.1 | < 1
